Results reported in the kinase profiling compilation of Christmann-Franck et al. (2016).

Columns and labels:
Assay in all cases: radiometric filter-binding kinase assay
MELK (human) = MELK (human) (UniProt Q14680)
INSR (human) = INSR (human) (UniProt P06213)
EEF2K (human) = EEF2K (human) (UniProt O00418)
GSK3B (human) = GSK3B (human) (UniProt P49841)
DYRK2 (human) = DYRK2 (human) (UniProt Q92630)
PKN2 (human) = PKN2 (human) (UniProt Q16513)
PAK4 (human) = PAK4 (human) (UniProt O96013)
PRKCZ (human) = PRKCZ (human) (UniProt Q05513)
MAPK12 (human) = MAPK12 (human) (UniProt P53778)
PRKCA (human) = PRKCA (human) (UniProt P17252)
PAK6 (human) = PAK6 (human) (UniProt Q9NQU5)
PAK6 (human), sequence (Q9NQU5 whole entry, looked up): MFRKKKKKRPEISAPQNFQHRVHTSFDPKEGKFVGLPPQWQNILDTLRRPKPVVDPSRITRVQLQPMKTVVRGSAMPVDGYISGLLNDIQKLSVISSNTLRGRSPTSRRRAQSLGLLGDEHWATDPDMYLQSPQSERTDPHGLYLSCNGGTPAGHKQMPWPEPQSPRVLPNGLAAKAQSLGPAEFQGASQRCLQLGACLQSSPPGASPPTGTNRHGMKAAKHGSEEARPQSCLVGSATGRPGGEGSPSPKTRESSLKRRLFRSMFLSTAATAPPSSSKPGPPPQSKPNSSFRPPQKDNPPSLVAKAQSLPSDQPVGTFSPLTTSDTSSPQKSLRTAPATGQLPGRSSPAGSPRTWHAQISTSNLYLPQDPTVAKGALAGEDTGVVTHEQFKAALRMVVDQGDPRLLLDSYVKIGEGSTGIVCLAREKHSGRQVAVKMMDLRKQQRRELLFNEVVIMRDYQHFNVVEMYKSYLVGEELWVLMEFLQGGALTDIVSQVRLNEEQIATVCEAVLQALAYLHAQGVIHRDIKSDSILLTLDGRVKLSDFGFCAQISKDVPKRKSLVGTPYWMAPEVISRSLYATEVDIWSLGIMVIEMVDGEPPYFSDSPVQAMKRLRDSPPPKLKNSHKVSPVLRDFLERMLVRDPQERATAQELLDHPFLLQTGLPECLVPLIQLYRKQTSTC

EPHA2 (human) = EPHA2 (human) (UniProt P29317)
EPHA2 (human), sequence (P29317 whole entry, looked up): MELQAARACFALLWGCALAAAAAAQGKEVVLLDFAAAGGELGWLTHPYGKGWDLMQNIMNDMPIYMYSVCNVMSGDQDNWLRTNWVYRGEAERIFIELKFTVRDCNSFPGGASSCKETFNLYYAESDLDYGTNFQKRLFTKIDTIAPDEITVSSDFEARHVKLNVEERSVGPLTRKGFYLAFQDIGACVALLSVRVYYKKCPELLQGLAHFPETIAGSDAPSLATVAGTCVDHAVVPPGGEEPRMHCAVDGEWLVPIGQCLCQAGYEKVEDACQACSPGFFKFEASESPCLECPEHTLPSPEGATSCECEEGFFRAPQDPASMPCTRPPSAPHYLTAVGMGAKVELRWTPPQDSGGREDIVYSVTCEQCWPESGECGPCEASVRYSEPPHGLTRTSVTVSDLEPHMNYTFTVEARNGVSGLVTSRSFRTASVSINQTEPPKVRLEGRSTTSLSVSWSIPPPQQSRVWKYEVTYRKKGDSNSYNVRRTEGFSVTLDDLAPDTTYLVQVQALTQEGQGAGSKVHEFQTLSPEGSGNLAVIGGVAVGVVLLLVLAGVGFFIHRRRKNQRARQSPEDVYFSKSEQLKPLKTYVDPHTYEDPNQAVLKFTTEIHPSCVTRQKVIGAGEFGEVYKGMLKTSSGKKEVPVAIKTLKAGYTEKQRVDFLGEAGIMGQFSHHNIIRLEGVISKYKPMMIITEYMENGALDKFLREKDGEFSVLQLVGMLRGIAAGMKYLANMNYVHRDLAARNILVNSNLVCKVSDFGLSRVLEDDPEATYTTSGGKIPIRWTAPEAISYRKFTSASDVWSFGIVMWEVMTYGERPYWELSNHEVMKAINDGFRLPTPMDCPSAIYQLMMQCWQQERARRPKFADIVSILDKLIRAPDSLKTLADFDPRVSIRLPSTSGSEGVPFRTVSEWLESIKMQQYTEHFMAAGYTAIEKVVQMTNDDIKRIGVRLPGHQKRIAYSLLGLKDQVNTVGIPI

MAPK9 (human) = MAPK9 (human) (UniProt P45984)
[1] = test system: AKT1 (human), P31749 [S473D]
AKT1 (human), P31749 [S473D], sequence (P31749 whole entry S473D, looked up): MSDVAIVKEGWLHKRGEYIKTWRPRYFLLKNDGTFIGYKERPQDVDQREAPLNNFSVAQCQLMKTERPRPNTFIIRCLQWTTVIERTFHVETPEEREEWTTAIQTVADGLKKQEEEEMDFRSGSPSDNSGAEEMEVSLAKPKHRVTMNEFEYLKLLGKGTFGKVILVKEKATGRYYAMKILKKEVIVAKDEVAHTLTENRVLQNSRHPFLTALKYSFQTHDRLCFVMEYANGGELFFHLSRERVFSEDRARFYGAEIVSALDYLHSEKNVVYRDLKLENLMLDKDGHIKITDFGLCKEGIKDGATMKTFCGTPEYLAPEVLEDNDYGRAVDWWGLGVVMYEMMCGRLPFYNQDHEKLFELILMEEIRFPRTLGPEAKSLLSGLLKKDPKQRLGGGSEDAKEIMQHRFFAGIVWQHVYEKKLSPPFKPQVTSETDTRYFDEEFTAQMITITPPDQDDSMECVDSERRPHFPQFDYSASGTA

EPHB3 (human) = EPHB3 (human) (UniProt P54753)
MST4 (human) = MST4 (human) (UniProt Q9P289)
PIM1 (human) = PIM1 (human) (UniProt P11309)
MAPKAPK2 (human) = MAPKAPK2 (human) (UniProt P49137)
MAPKAPK2 (human), sequence (P49137 whole entry, looked up): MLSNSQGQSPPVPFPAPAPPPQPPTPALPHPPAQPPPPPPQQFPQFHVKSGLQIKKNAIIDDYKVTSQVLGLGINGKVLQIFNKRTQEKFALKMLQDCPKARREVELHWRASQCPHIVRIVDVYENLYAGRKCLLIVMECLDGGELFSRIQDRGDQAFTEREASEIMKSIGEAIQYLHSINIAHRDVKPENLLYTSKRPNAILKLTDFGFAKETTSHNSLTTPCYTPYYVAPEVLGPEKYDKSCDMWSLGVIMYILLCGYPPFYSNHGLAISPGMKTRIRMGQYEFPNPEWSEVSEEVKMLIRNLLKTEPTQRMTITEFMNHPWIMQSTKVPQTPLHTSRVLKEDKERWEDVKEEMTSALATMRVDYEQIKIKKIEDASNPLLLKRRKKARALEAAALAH

PKN2 (human), sequence (Q16513 whole entry, looked up): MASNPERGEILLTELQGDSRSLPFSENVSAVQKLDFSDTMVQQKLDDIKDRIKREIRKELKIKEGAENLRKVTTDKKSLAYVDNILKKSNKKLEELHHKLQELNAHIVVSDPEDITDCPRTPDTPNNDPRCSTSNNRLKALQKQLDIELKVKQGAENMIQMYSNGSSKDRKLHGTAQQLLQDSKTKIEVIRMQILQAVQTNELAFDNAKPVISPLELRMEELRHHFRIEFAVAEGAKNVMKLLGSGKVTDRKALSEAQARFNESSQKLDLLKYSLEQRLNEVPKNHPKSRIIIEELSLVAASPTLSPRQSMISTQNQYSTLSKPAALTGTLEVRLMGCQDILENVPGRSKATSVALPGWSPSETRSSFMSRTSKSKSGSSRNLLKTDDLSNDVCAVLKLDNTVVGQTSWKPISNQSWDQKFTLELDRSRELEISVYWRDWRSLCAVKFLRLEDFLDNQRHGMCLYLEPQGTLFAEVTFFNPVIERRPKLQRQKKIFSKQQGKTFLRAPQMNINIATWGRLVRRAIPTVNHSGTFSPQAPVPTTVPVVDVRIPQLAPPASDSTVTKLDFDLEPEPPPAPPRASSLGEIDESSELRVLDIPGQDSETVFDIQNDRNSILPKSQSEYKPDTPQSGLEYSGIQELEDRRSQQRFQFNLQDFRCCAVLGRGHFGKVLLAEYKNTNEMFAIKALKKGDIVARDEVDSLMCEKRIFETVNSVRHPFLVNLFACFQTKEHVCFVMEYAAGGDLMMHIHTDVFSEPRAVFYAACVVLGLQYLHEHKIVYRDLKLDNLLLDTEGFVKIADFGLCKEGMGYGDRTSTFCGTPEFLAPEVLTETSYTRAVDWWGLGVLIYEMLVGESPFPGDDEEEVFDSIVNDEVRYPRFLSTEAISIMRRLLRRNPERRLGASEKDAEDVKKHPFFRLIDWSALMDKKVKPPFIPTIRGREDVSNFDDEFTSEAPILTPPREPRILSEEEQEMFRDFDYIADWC
EEF2K (human), sequence (O00418 whole entry, looked up): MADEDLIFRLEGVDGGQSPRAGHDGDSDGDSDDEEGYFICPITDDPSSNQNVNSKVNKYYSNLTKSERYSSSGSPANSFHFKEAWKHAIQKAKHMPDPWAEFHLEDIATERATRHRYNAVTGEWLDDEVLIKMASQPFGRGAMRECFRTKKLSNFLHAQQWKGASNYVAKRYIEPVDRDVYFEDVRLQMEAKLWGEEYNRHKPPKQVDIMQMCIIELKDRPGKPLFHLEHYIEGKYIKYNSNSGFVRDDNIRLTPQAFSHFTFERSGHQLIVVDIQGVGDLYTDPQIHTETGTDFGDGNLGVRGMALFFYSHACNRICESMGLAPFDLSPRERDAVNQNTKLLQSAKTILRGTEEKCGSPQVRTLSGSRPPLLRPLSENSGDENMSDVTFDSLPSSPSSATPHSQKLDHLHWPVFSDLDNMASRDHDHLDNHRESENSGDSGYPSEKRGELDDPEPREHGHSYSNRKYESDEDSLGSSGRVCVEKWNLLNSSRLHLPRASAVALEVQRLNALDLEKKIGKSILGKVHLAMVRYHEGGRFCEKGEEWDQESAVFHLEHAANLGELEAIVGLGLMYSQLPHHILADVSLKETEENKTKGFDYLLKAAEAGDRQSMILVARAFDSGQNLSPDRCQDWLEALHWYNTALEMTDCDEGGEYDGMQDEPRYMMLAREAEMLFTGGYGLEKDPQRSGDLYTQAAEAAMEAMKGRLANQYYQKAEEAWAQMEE
PAK4 (human), sequence (O96013 whole entry, looked up): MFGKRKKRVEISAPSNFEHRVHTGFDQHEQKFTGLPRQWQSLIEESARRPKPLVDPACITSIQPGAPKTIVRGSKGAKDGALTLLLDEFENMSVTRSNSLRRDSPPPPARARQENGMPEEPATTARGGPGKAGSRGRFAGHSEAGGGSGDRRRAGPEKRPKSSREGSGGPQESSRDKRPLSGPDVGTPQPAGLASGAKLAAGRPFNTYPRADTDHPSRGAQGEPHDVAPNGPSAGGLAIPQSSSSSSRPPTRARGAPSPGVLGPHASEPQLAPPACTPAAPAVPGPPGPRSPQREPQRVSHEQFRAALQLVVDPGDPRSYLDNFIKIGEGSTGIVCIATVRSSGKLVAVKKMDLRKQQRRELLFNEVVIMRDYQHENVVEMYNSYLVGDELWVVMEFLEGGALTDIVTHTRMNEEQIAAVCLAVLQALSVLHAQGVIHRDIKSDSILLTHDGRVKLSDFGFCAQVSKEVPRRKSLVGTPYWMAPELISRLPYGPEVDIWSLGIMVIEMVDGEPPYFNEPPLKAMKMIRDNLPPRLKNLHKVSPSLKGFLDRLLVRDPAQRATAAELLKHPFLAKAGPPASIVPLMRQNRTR

Cn1c(=O)c2c(ncn2C)n(C)c1=O
residual activity (MELK (human); compound 0.1 µM): 98% | residual activity (MELK (human); compound 1.0 µM): 90% | residual activity (INSR (human); compound 0.1 µM): 104% | residual activity (EEF2K (human); compound 0.1 µM): 88% | residual activity (EEF2K (human); compound 1.0 µM): 92% | residual activity (GSK3B (human); compound 0.1 µM): 102% | residual activity (GSK3B (human); compound 1.0 µM): 101% | residual activity (DYRK2 (human); compound 0.1 µM): 81% | residual activity (DYRK2 (human); compound 1.0 µM): 87% | residual activity (PKN2 (human); compound 0.1 µM): 89% | residual activity (PAK4 (human); compound 0.1 µM): 99% | residual activity (PAK4 (human); compound 1.0 µM): 100% | residual activity (PRKCZ (human); compound 0.1 µM): 95% | residual activity (PRKCZ (human); compound 1.0 µM): 88% | residual activity (MAPK12 (human); compound 0.1 µM): 97% | residual activity (MAPK12 (human); compound 1.0 µM): 110% | residual activity (PRKCA (human); compound 0.1 µM): 101% | residual activity (PRKCA (human); compound 1.0 µM): 100% | residual activity (PAK6 (human); compound 0.1 µM): 97% | residual activity (PAK6 (human); compound 1.0 µM): 101% | residual activity (EPHA2 (human); compound 0.1 µM): 96% | residual activity (EPHA2 (human); compound 1.0 µM): 102% | residual activity (MAPK9 (human); compound 0.1 µM): 94% | residual activity (MAPK9 (human); compound 1.0 µM): 100% | residual activity ([1]; compound 0.1 µM): 90% | residual activity ([1]; compound 1.0 µM): 101% | residual activity (EPHB3 (human); compound 0.1 µM): 92% | residual activity (EPHB3 (human); compound 1.0 µM): 97% | residual activity (MST4 (human); compound 0.1 µM): 96% | residual activity (MST4 (human); compound 1.0 µM): 97% | residual activity (PIM1 (human); compound 0.1 µM): 90% | residual activity (PIM1 (human); compound 1.0 µM): 97% | residual activity (MAPKAPK2 (human); compound 0.1 µM): 102% | residual activity (MAPKAPK2 (human); compound 1.0 µM): 89%

Cc1cc(SCc2sc(-c3ccc(C(F)(F)F)cc3)nc2C)ccc1OCC(=O)O
residual activity (MELK (human); compound 1.0 µM): 79% | residual activity (MELK (human); compound 10.0 µM): 85% | residual activity (INSR (human); compound 1.0 µM): 107% | residual activity (INSR (human); compound 10.0 µM): 103% | residual activity (EEF2K (human); compound 1.0 µM): 80% | residual activity (GSK3B (human); compound 1.0 µM): 87% | residual activity (GSK3B (human); compound 10.0 µM): 83% | residual activity (DYRK2 (human); compound 1.0 µM): 103% | residual activity (DYRK2 (human); compound 10.0 µM): 111% | residual activity (PKN2 (human); compound 1.0 µM): 102% | residual activity (PKN2 (human); compound 10.0 µM): 92% | residual activity (PAK4 (human); compound 1.0 µM): 87% | residual activity (PAK4 (human); compound 10.0 µM): 66% | residual activity (PRKCZ (human); compound 1.0 µM): 79% | residual activity (PRKCZ (human); compound 10.0 µM): 74% | residual activity (MAPK12 (human); compound 1.0 µM): 108% | residual activity (MAPK12 (human); compound 10.0 µM): 106% | residual activity (PRKCA (human); compound 1.0 µM): 96% | residual activity (PRKCA (human); compound 10.0 µM): 88% | residual activity (PAK6 (human); compound 1.0 µM): 97% | residual activity (PAK6 (human); compound 10.0 µM): 109% | residual activity (EPHA2 (human); compound 1.0 µM): 103% | residual activity (EPHA2 (human); compound 10.0 µM): 113% | residual activity (MAPK9 (human); compound 10.0 µM): 79% | residual activity ([1]; compound 1.0 µM): 107% | residual activity ([1]; compound 10.0 µM): 105% | residual activity (EPHB3 (human); compound 10.0 µM): 115% | residual activity (MST4 (human); compound 1.0 µM): 104% | residual activity (MST4 (human); compound 10.0 µM): 83% | residual activity (PIM1 (human); compound 1.0 µM): 79% | residual activity (PIM1 (human); compound 10.0 µM): 83% | residual activity (MAPKAPK2 (human); compound 1.0 µM): 97% | residual activity (MAPKAPK2 (human); compound 10.0 µM): 84%

C/C(=C1/C(=O)Nc2ccc(NC(N)=O)cc21)c1ccc[nH]1
residual activity (MELK (human); compound 0.001 µM): 86% | residual activity (MELK (human); compound 0.01 µM): 47% | residual activity (MELK (human); compound 0.1 µM): 9% | residual activity (INSR (human); compound 0.01 µM): 102% | residual activity (INSR (human); compound 0.1 µM): 110% | residual activity (EEF2K (human); compound 0.01 µM): 101% | residual activity (EEF2K (human); compound 0.1 µM): 106% | residual activity (GSK3B (human); compound 0.01 µM): 92% | residual activity (GSK3B (human); compound 0.1 µM): 49% | residual activity (DYRK2 (human); compound 0.001 µM): 88% | residual activity (DYRK2 (human); compound 0.01 µM): 59% | residual activity (DYRK2 (human); compound 0.1 µM): 18% | residual activity (PKN2 (human); compound 0.001 µM): 67% | residual activity (PKN2 (human); compound 0.01 µM): 61% | residual activity (PKN2 (human); compound 0.1 µM): 36% | residual activity (PAK4 (human); compound 0.001 µM): 80% | residual activity (PAK4 (human); compound 0.01 µM): 85% | residual activity (PAK4 (human); compound 0.1 µM): 76% | residual activity (PRKCZ (human); compound 0.001 µM): 78% | residual activity (PRKCZ (human); compound 0.01 µM): 84% | residual activity (PRKCZ (human); compound 0.1 µM): 83% | residual activity (MAPK12 (human); compound 0.001 µM): 89% | residual activity (MAPK12 (human); compound 0.01 µM): 87% | residual activity (MAPK12 (human); compound 0.1 µM): 82% | residual activity (PRKCA (human); compound 0.001 µM): 102% | residual activity (PRKCA (human); compound 0.01 µM): 113% | residual activity (PRKCA (human); compound 0.1 µM): 107% | residual activity (PAK6 (human); compound 0.001 µM): 97% | residual activity (PAK6 (human); compound 0.01 µM): 102% | residual activity (PAK6 (human); compound 0.1 µM): 88% | residual activity (EPHA2 (human); compound 0.001 µM): 97% | residual activity (EPHA2 (human); compound 0.01 µM): 101% | residual activity (EPHA2 (human); compound 0.1 µM): 87% | residual activity (MAPK9 (human); compound 0.01 µM): 123% | residual activity (MAPK9 (human); compound 0.1 µM): 118% | residual activity ([1]; compound 0.001 µM): 85% | residual activity ([1]; compound 0.01 µM): 76% | residual activity (EPHB3 (human); compound 0.001 µM): 114% | residual activity (EPHB3 (human); compound 0.01 µM): 99% | residual activity (EPHB3 (human); compound 0.1 µM): 101% | residual activity (MST4 (human); compound 0.001 µM): 87% | residual activity (MST4 (human); compound 0.01 µM): 80% | residual activity (PIM1 (human); compound 0.001 µM): 97% | residual activity (PIM1 (human); compound 0.01 µM): 98% | residual activity (PIM1 (human); compound 0.1 µM): 69% | residual activity (MAPKAPK2 (human); compound 0.001 µM): 98% | residual activity (MAPKAPK2 (human); compound 0.01 µM): 86%

NC(=O)Nc1ccc2c(c1)/C(=C/c1cc(-c3cccnc3)c[nH]1)C(=O)N2
residual activity (MELK (human); compound 0.1 µM): 16% | residual activity (MELK (human); compound 1.0 µM): 3% | residual activity (MELK (human); compound 10.0 µM): 0% | residual activity (INSR (human); compound 0.1 µM): 112% | residual activity (INSR (human); compound 1.0 µM): 101% | residual activity (INSR (human); compound 10.0 µM): 26% | residual activity (EEF2K (human); compound 0.1 µM): 102% | residual activity (EEF2K (human); compound 1.0 µM): 86% | residual activity (EEF2K (human); compound 10.0 µM): 116% | residual activity (GSK3B (human); compound 0.1 µM): 11% | residual activity (GSK3B (human); compound 1.0 µM): 7% | residual activity (GSK3B (human); compound 10.0 µM): 3% | residual activity (DYRK2 (human); compound 0.1 µM): 19% | residual activity (DYRK2 (human); compound 1.0 µM): 2% | residual activity (DYRK2 (human); compound 10.0 µM): 0% | residual activity (PKN2 (human); compound 0.1 µM): 25% | residual activity (PKN2 (human); compound 1.0 µM): 5% | residual activity (PKN2 (human); compound 10.0 µM): 6% | residual activity (PAK4 (human); compound 0.1 µM): 64% | residual activity (PAK4 (human); compound 1.0 µM): 31% | residual activity (PRKCZ (human); compound 0.1 µM): 85% | residual activity (PRKCZ (human); compound 1.0 µM): 66% | residual activity (PRKCZ (human); compound 10.0 µM): 21% | residual activity (MAPK12 (human); compound 0.1 µM): 93% | residual activity (MAPK12 (human); compound 1.0 µM): 86% | residual activity (PRKCA (human); compound 0.1 µM): 106% | residual activity (PRKCA (human); compound 1.0 µM): 83% | residual activity (PRKCA (human); compound 10.0 µM): 27% | residual activity (PAK6 (human); compound 0.1 µM): 86% | residual activity (PAK6 (human); compound 1.0 µM): 77% | residual activity (PAK6 (human); compound 10.0 µM): 38% | residual activity (EPHA2 (human); compound 0.1 µM): 93% | residual activity (EPHA2 (human); compound 1.0 µM): 54% | residual activity (EPHA2 (human); compound 10.0 µM): 20% | residual activity (MAPK9 (human); compound 1.0 µM): 43% | residual activity (MAPK9 (human); compound 10.0 µM): 17% | residual activity ([1]; compound 0.1 µM): 85% | residual activity ([1]; compound 1.0 µM): 69% | residual activity ([1]; compound 10.0 µM): 62% | residual activity (EPHB3 (human); compound 0.1 µM): 107% | residual activity (EPHB3 (human); compound 1.0 µM): 90% | residual activity (EPHB3 (human); compound 10.0 µM): 53% | residual activity (MST4 (human); compound 1.0 µM): 18% | residual activity (MST4 (human); compound 10.0 µM): 21% | residual activity (PIM1 (human); compound 0.1 µM): 43% | residual activity (PIM1 (human); compound 1.0 µM): 9% | residual activity (PIM1 (human); compound 10.0 µM): 2% | residual activity (MAPKAPK2 (human); compound 0.1 µM): 86% | residual activity (MAPKAPK2 (human); compound 1.0 µM): 49% | residual activity (MAPKAPK2 (human); compound 10.0 µM): 10%
